Laboratory results: publication PMC10767194 (The Journal of Biological Chemistry, 2023)

What was measured:
Cdk9/CycT1 = target: T1, Cdk9/CycT1 (Homo sapiens, UniProt P50750); test: radioactive in vitro kinase assay, Cdk9/CycT1; format: biochemical; settings: 0, 0.1, 1, 10, 100 μM compound, 0.2 μM kinase, 0.2 mM ATP
T1 construct: Full-length, human, WT Cdk9 (residues 1–372, UniProt P50750); made in house; host or cells: Cdk9: Sf9 insect cells; CycT1: E. coli
Experimental: (§1) Radioactive kinase activity assays were performed in a total volume of 15 μl per sample in kinase assay buffer (50 mM Hepes/pH 7.6, 34 mM KCl, 7 mM MgCl2, 5 mM β-glycerol phosphate, and 2.5 mM dithioerythritol). Preincubation of 0.2 μM or 0.02 μM recombinant protein kinase with indicated concentrations of respective inhibitor and 0.2 to 2 mM ATP containing 0.45 mCi [^32P]-γ-ATP/ml (PerkinElmer) was carried out for 5 min. Kinase reactions were started by addition of substrate protein (10 μM GST-Rb1 for Cdk4/CycD3, 10 μM GST-CTD[52] for Cdk7/CycH/MAT1, 50 μM His-c-Myc for all others) and incubated for 20 min at 30 °C in a shaking incubator at 300 rpm. For pS7-CTD[3] peptide, the substrate concentration was increased to 100 μM and assays were performed for 60 min. Reactions were terminated by the addition of EDTA to a final concentration of 50 mM. […] Radioactive counts were determined in a Beckman Liquid Scintillation Counter (Beckman Coulter) for 1 min. […] IC50 values were extracted from triplicate measurements by sigmoidal curve fitting using DataGraph (v. 5.0; https://www.visualdatatools.com/DataGraph/) or were determined by applying the Morrison quadratic equation for tight binding inhibitors using GraphPad Prism 10 (https://www.graphpad.com/) ([40]).

HIPK2 = tested on: T2, HIPK2; test: radioactive in vitro kinase assay, HIPK2; format: biochemical, human; settings: 0, 0.1, 1, 10, 100 μM compound, 0.2 μM kinase, 0.2 mM ATP
T2 construct: human HIPK2 (residues 160–563, UniProt Q9H2X6); made in house; host or cells: Sf9 insect cells
Experimental: as §1

Cdk13/CycK = target: T3, Cdk13/CycK (Homo sapiens, UniProt Q14004); test: SPR single-cycle kinetics, active Cdk13*/CycK; settings: T-loop phosphorylated active kinase (CAK1 coexpressed), 1:1 binding model
T3 construct: The kinase domain of human Cdk13 (residues 694–1039, UniProt Q14004); made in house; host or cells: Sf9 insect cells, co-expressed with CAK1
Experimental: The protein kinases were immobilized on a CM5 chip using the amine-coupling method. […] The fully active and T-loop phosphorylated kinase preparations of Cdk12∗/CycK and Cdk13∗/CycK were obtained through coexpression with Cdk-activating kinase 1 (CAK1) from Saccharomyces cerevisiae. […] For comparison, we measured the affinity of NVP-2 for active kinases Cdk12∗/CycK and its proposed target Cdk9/CycT1 by SPR.
SPR experiments were conducted on a Biacore 8K (Cytiva) device. The system was equilibrated in running buffer (20 mM Tris pH 8, 150 mM NaCl, 1 mM tris(2-carboxyethyl)phosphine, 0.1 mM MgCl2, 0.05% Tween20, and 2% DMSO) at 25 °C. Flow cell 1 and 2 surfaces of a CM5 sensor chip (Cytiva) were conditioned with 50 mM NaOH at a flow rate of 30 μl/min for 15 s and subsequently activated with a 1:1 mix of 0.1 M N-hydroxysuccinimide (NHS) and 0.1 M 3-(N,N-dimethylamino) propyl-N-ethyl-carbodiimide (EDC) at a flow rate of 10 μl/min for 7 min. The flow system was washed with 1 M enthanolamine (pH 8). WT and mutant kinases Cdk12/CycK, Cdk13/CycK and Cdk9/CycT1 were diluted in Mes (pH 6.5) to a final concentration of 2 μM. Immobilization of kinases was performed in running buffer without DMSO using the amine coupling method on flow cell 2 surface for 160 s at a flow rate of 10 μl/min. Free binding sites were blocked with 1 M ethanolamine pH 8.0 (10 μl/min) for 7 min. […]

T1 sequence (P50750 whole entry, the tested form may be a part): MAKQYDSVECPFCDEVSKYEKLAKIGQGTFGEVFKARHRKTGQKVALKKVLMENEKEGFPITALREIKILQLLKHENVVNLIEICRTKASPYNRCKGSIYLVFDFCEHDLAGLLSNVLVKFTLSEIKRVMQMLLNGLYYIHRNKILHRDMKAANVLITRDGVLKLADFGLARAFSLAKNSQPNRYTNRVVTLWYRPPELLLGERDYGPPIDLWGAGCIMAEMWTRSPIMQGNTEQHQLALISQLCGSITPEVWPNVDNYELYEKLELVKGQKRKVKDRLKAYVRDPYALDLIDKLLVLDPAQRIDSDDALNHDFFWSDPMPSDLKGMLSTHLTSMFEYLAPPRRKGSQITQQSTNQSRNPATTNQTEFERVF
T1 sequence (O60563 1-272 partner limits assumed): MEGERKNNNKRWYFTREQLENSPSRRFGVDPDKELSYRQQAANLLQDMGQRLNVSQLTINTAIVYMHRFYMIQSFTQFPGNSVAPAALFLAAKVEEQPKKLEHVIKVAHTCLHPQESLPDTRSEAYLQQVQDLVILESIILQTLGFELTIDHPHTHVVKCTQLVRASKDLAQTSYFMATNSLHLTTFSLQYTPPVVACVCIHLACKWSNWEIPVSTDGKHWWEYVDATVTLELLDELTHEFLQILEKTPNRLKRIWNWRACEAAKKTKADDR
T3 sequence (Q14004 694-1039): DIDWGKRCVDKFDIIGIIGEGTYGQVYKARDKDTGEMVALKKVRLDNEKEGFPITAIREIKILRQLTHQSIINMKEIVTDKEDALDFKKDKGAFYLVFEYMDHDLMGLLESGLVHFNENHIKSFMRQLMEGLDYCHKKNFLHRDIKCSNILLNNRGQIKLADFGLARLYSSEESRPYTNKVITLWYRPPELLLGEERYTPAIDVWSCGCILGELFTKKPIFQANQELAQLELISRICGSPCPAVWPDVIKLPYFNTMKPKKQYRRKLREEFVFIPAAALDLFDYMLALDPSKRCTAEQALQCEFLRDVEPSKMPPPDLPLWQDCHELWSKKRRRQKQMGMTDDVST
T3 sequence (O75909 1-267 partner limits assumed): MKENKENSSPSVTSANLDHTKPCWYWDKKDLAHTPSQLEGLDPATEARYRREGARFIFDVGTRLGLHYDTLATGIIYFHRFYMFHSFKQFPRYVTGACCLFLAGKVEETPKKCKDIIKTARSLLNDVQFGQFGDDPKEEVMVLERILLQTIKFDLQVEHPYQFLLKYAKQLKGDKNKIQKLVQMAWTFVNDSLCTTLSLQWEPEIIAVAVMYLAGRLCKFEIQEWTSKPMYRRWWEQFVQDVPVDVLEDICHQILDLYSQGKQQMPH

Cn1cc(-n2cnc3c(NCc4nc5cc(Cl)c(Cl)cc5[nH]4)nc(N4CCOCC4)nc32)cn1 [SR-4835]
inhibition of Cdk9 activity (Cdk9/CycT1): no inhibitory activity | inhibition of HIPK2 activity (HIPK2): not inhibited | Kd (Cdk13/CycK): 168 nM
